Source: US20180265867A1, “NUCLEIC ACID MOLECULES WITH ENHANCED ACTIVITY” (priority 2015, published 2018)
{Cy3} = Cy3 fluorescent dye label; d = 2'-deoxy (DNA); r = 2'-OH (RNA)

Tests used:
[1] = tested on: GAPDH; assay: GAPDH gene knockdown in MG63 cells by RT-PCR; assay type: cell-based, human; conditions: MG63 cells, carrier-free transfection, 50 nM, 24 h
Experimental: At 70% confluency, a day prior to transfection, the cells were seeded at a density of 35 000 cells in a 24-well cell culture plate to achieve 60-80% confluence at the day of transfection. Cell penetrating siRNAs (cpRNAs) of different lengths were transfected at 50 nM concentrations with Magnet Assisted Transfection (MATra-si) reagent for siRNAs (IBA GmbH, Göttingen, Germany) according to the manufacturers' protocols. Briefly, the siRNA was mixed with MATra-si reagent composed of supermagnetic ironoxide nanoparticles and incubated for 20 min. A complex was formed which was added to the cells to be transfected. A strong magnetic force was applied beneath the cells for 15 min. This forced the complex to be drawn into the cells by the magnetic field, and as a result the siRNA was delivered directly into the cytosol. For carrier free transfection experiments, cpRNAs were simply added to cells lines MG63, HOB, HCT116, fibroblasts and keratinocytes at 50 nM concentrations. Cells were also transfected with negative control siRNA (scrambled sequence) and cells left untreated were taken as controls. Each transfection was performed in triplicate. Post transfection, cells were incubated for 24 hours.
For the experiments involving lysosomotropic agent chloroquine (CQ), CQ was first neutralized to pH 7.4 using 1 M NaOH prior to use. MG63 cells were transfected with dT2, dT5, dT8, (dT5)2, as(dT5), and bl(dT5) siRNA in presence or absence of 100 μM CQ or using MATra-si and incubated for 24 h. Similar experiments were performed for other cpRNAs namely, dA5, dT5, dG5, (dT5)2, rA5 and dC5. For the control experiment, cells were either left untreated or transfected with negative control siRNA (scrambled sequence). Each transfection experiment was performed in triplicate.
After performing transfection experiments for 24 h, 48 h and 72 h respectively, total RNA was isolated from cells by adding 500 μl of lysis buffer (Qiagen, Germany), followed by homogenization of cell lysates using QIAshredder (Qiagen, Germany). RNA was extracted from cell lysates by RNeasy Mini Kit (Qiagen, Germany). All RNA samples were treated with DNase using TURBO-DNAfree (Ambion, USA). Agilent 2100 BioAnalyzer (Agilent Technologies, Palo Alto, Calif.) was used to confirm high quality of all RNA samples, which reports an RNA Integrity Number (RIN) that takes into account the entire electrophoretic RNA trace produced in the analysis. A RIN of greater than or equal to seven indicates the RNA is suitable for high stringency applications.
cDNA synthesis was performed in triplicate using total RNA reverse transcribed using High Capacity cDNA reverse transcription kit (Applied Biosystems, USA), with non-template control added to ensure a lack of signal in assay background. Reactions were incubated on a 96-well Applied Biosystems 9800 Fast Thermal Cycler PCR System at 37° C. for 60 min followed by 95° C. for 5 min. The real-time PCR reactions were carried out with 10 μl of 2×TaqMan® Universal PCR Master Mix, no AmpErase® UNG (Applied Biosystems, USA), 9 μl diluted cDNA, and 1 μl of TaqMan gene specific assay mix in a 20 μl final reaction volume. Reference gene beta-actin (ACTB) (Applied Biosystems, USA) was selected as control for normalization of TaqMan data. The assay included a no-template control, a standard curve of five serial dilution points (in steps of 3-fold) of cDNA mixture. Probes specific for IFN-α (Hs01022060_m1), IFN-β (Hs01077958_s1), IFN-γ (Hs00985251_m1), ACTB(Hs01060665_g1) and GAPDH (Hs02758991_g1) were purchased from Applied Biosystems. The amplification was carried out using the 7500 Fast Real-Time PCR System (Applied Biosystems, USA) using a 40-cycle program. The 7500 software automatically calculates raw Ct (cycle threshold) values. Data from samples with a Ct value equal to or below 35 were further analyzed. […]

[2] = tested on: MG63, HOB, HCT116, HEK293 and MC3T3 cells; assay: Flow cytometry cellular uptake of Cy3-cpRNA in different cells; assay type: cell-based, human; mouse; conditions: 50 nM, 24 h at 37° C., carrier-free
Experimental: To determine the amount of cellular uptake of cpRNA by flow cytometry, Cy3 labeled cpRNA (Table 3) was used for transfection experiments using different types of cells (MG63, HOB, HCT116, HEK293 and MC3T3). Cells were seeded at a density of 1×10^5 cells per well and cultured for 24 hours. Thereafter, cells were transfected with 50 nM Cy3-cpRNA, with control wells left untreated. Post-transfection, cells were incubated for further 24 h at 37° C., trypsinised and washed with PBS containing 2 mM EDTA and 0.5% human serum albumin. The cells were then suspended in PBS and subjected to fluorescence analysis on a FACSCanto II (BD Biosciences) BioVis platform, scilife laboratory. The images were analyzed using FlowJo software (version 7.6; TreeStar, Ashland, Oreg.).

[3] = tested on: MG63 cells; assay: Flow cytometry uptake kinetics and ODN2006 blocking in MG63 cells; assay type: cell-based, human; conditions: MG63 cells, 50 nM, 37° C.
Experimental: To determine cpRNA cellular uptake kinetics, FACS experiments were repeated as mentioned above using MG63 cells, where Cy3-cpRNA was treated for different time points. Briefly, Cy3-cpRNA (50 nM) was added to cells, followed by incubation for 0.5 h, 1 h, 1.5 h, 2 h, 3 h and 4 h respectively. The cells were subsequently trypsinised and analyzed by FACS as mentioned above.
To perform […] blocking studies, seeded MG63 cells were incubated with 600 nM 3′-FITC labeled ODN2006 for 1 h, followed by addition of 50 nM cpRNA. Cells were incubated for additional 0.5 h, 1 h, 1.5 h, 2 h, 3 h and 4 h respectively, trypsinised and analyzed by FACS analysis as mentioned above.
To verify if the uptake mechanism of cpRNA was analogous to viral RNA and the RNA mimic polyriboinosinic:polyribocytidylic acid or poly(I:C), blocking studies were performed using the Btype single-stranded DNA sequence ODN2006 which share a common uptake receptor. This synthetic phosphorothioate modified oligo, though initially identified as a TLR9 agonist, blocks cellular uptake of viral RNA and poly(I:C) by preferentially competing with the common RNA uptake receptor. Blocking experiment were performed by pre-incubating the cells with FITC labeled ODN2006 for 1 h, followed by the addition of Cy3-labeled cpRNA. The blocking studies and cellular uptake was monitored using FACS analysis at different time points for up to 4 h. As a control experiment, the uptake kinetics was performed in the absence of FITC labeled ODN2006. […] These experiments verified the involvement of an alternate uptake mechanism and indicated the presence of a ubiquitous RNA capture receptor that required ˜1 h of maturation time before the endocytosis process could initiate.

[4] = Thermal denaturation (Tm) of siRNA duplexes; assay type: physicochemical
Experimental: Thermal denaturation studies of siRNA was carried out in phosphate buffer, pH 7.0, containing 140 mM KCl. UV absorbance was monitored at 260 nm in the temperature range from 40 to 95° C. using a Lambda 35 UV-Vis spectrophotometer equipped with a Peltier temperature programmer with a heating rate of 0.5° C./min. Samples (1 μM RNA) were denatured at 90° C. for 3 min followed by slow cooling to 27° C. prior to the measurements. Tm values were obtained from the maxima of the first derivatives of the melting curves. All Tm values given are the averages of three independent sets of experiments (±0.3° C. error range).

[5] = tested on: MG63 and HOB cells; assay: Cell proliferation / toxicity by MTS assay; assay type: cell-based, human; conditions: 50 and 100 nM, 24 h post transfection
Experimental: Cell proliferation was assessed by MTS (3-(4,5-dimethylthiazol-2-yl)-5-(3-carboxymethoxyphenyl)-2-(4-sulfophenyl)-2H-tetrazolium, inner salt) reagent assay: MG63 cells were seeded at a density of 35 000 cells in 24-well culture plates, and cultured for 24 hours as mentioned above. Cells were transfected with 50 nM or 100 nM concentrations of cpRNA and negative control siRNAs with or without MATra-si, while control wells were left untreated. Each transfection experiment was performed in triplicate. Post-transfection, cells were incubated for 24 hours at 37° C. The viable cells were evaluated by MTS assay, using CellTiter 96®AQueousOne Solution Cell Proliferation Assay (Promega, USA) according to the manufacturer's protocol. The enzymatic reduction in MTS to formazan was quantified by an ELISA plate reader (Thermo Scientific) at 490 nm.
Thus, the role of siRNA topography on immune activation and cellular toxicity was investigated because increased RNA length has been reported to cause toxicity with increased interferon (IFN)-β expression. toxicity studies were performed using the MTS assay with two concentrations of GAPDH siRNA (50 and 100 nM) with different overhang lengths (dT2, dT5, and dT8) in MG63 and HOB cells and compared it with the scrambled siRNA sequence (FIG. 5).

[6] = tested on: MG63 cells; conditions: no own experiment described; cited from earlier work

Substance	GAPDH gene knockdown [1]	cellular uptake by flow cytometry ([2]; listed as Cy3-labeled cpRNA)	cellular uptake by flow cytometry ([2]; listed as Cy3 labeled cpRNA)	time after which cellular uptake was initiated [3]	time in which uptake finished after initiation [3]	Tm ([4]; 7.5 mM phosphate buffer pH 7.0 containing 140 mM KCl, 1 μM strands, 40-95° C.)	Δ Tm ([4]; Tm relative to canonical siRNA (dT2))	drop in Tm ([4]; as compared to canonical siRNA)	cytotoxicity (MTS assay) [5]	uptake kinetics [6]
Cy3 cpRNA: GAPDH cpRNA with Cy3 at 5′-end of sense strand (SEQ ID NO: 12, dT5), antisense SEQ ID NO: 2 (sense CCGAGCCACAUCGCUCAGATTTTT; antisense UCUGAGCGAUGUGGCUCGGTT; sense: sugars from the 5' end r19 d5, 5' {Cy3}, backbone not given here; antisense: sugars from the 5' end r19 d2, backbone not given here)	80%	near quantitative cellular uptake	quantitatively taken up by all the cells	1 h	≤ 2 h	–	–	–	–	–
dT8: GAPDH siRNA, sense SEQ ID NO: 4 with dT8 3′-overhang, antisense SEQ ID NO: 2 with dT2 (sense CCGAGCCACAUCGCUCAGATTTTTTTT; antisense UCUGAGCGAUGUGGCUCGGTT; sense: sugars from the 5' end r19 d8, backbone not given here; antisense: sugars from the 5' end r19 d2, backbone not given here)	50%	–	–	–	–	79.8 °C	−1.4 °C	1.5 °C	do not impose toxicity	–
polyriboinosinic:polyribocytidylic acid [poly(I:C)]	–	–	–	–	–	–	–	–	–	≤ 5 min
